We go through three compounds from patent EP3747280A1, “ANTIMICROBIAL COMBINATION FOR USE IN ANIMAL FEEDS” (Lucta, S.A., priority 2019, dated 2020).

For series [1] the following is noted: in animal feeds, in 20 to 40 days; higher depending on the thermal treatment of feed; cited from earlier work.
Series [2] in a line: Stability test in an animal feed (GC/FID quantification of the active ingredient in fish feed over storage time). It counts as physicochemical. An excerpt: The animal feed used was a commercial fish feed having a 52 wt% of crude protein.
Two 200 g samples of the commercial feed were taken for the application of each of the mixtures A and B.
A sterile plastic bag was spread out on a laboratory tray, and 200 g of the commercial feed was deposited on it. With the help of a liquid diffuser bottle, by means of short pulsations, 3 g of the mixture A, previously diluted to 10 wt% in vegetable oil, was applied to the feed.
The bag was closed and shaken, and the feed additive mixture was spread by manual friction in order to distribute it homogeneously all over the feed. Then, the feed containing the mixture A was put in a plastic container. The same process was carried out with mixture B instead of mixture A.
Each of these feed samples (200 g) containing mixture A or mixture B were divided into two and put into sterile cans (100 g of feed in each) for the different thermal treatments at room temperature (RT) and freezer temperature (FT).
Thus, an analytical method by capillary gas chromatography (high separation efficiency) and flame ionization detection (high sensitivity) ([…]) was developed. An Accelerated Solvent Extractor (ASE) extraction was made on the experimental feed samples and residual fats were eliminated from the chromatographic column using backflush.
In a mortar, about 5 g of the experimental feed sample were exactly weighted. 3 g of Celite 545 were added and mixed. The mixture was put in an ASE extraction cell (22 ml) and the sample was extracted with an 80%/20% hexane/acetone mixture at 100 °C and 1500 psi with 5 successive cycles (heating time 5 min, flush 40%, purge 60s) using an ASE equipment.
After extraction, enough anhydrous sodium sulfate was added to the extracts to absorb remaining water and solid residues. All the liquid extract was collected in a 50 ml beaker. The sodium sulfate was cleaned from the extraction tubes with some ml of the 80% /20% hexane/acetone mixture and added to the beaker. It was made up with the 80% /20% hexane/acetone mixture and mixed thoroughly. In a 2 ml glass vial to the GC/FID about 1 ml of the extract was taken. When some precipitate appeared, it was centrifuged at 6000 rpm 5 min.
The same protocol shown above was performed with the experimental feed samples but adding previously 0.2 ml of the 10,000 mg/l standard to 5 g of feed in the ASE extraction cell.
The standards, the experimental feed sample extract and its corresponding spiked sample extract were injected in the GC/FID equipment, minimum by duplicate, using the chromatographic conditions given above. The quantity spiked to the feed sample was at least the same quantity expected in the feed sample. If the area of the spiked sample didn't double at least the area of the corresponding non spiked sample, a high concentration of standard was used to spike the sample.
Results were calculated by standard addition method, taking into account the weight of the feed samples extracted and the standard concentrations.

The test system of series [3] is Vibrio campbellii. As to the kind of experiment: MIC assay, positive control. To be noted: positive control of the MIC test. It counts as cell-based. Here is the method: It was tested whether the experimental products (i.e. comparative examples 1 and 2, and examples 1 to 3) could inactivate diverse shrimp or fish and shrimp bacterial pathogens when directly interacting under an in vitro setting.
Bacterial growth was evaluated by visual and optical density.

As for `O=CC=Cc1ccccc1` [AC, cinnamaldehyde], in series [1], the losses is reported as 30-50%.

Turning to `C(=C\C1OCCO1)/c1ccccc1` [EAAC, cinnamaldehyde ethylene glycol acetal], the “Amount of active agent” value amounted to 269 mg/kg in series [2] (feed containing AC and EAAC 50:50, FT, 7 days); 220 mg/kg in series [2] (feed containing AC and EAAC 50:50, FT, 14 days); 265 mg/kg in series [2] (feed containing AC and EAAC 50:50, FT, 21 days); 238 mg/kg in series [2] (feed containing AC and EAAC 50:50, FT, 28 days); 197 mg/kg in series [2] (feed containing AC and EAAC 50:50, FT, 35 days); 224 mg/kg in series [2] (feed containing AC and EAAC 50:50, FT, 42 days). For the same compound, the “Amount of active agent” value in series [2] (feed containing AC and EAAC 50:50, RT, 7 days) is listed as 288 mg/kg; in series [2] (feed containing AC and EAAC 50:50, RT, 14 days) it was 236 mg/kg; in series [2] (feed containing AC and EAAC 50:50, RT, 21 days) it was 258 mg/kg; in series [2] (feed containing AC and EAAC 50:50, RT, 28 days) it was 237 mg/kg; in series [2] (feed containing AC and EAAC 50:50, RT, 35 days), 191 mg/kg; in series [2] (feed containing AC and EAAC 50:50, RT, 42 days), 229 mg/kg. Further, the “Amount of active agent” value was found to be 264 mg/kg in series [2] (feed containing a mixture of AC and EAAC, molar ratio 50:50, stored at freezer temperature (FT), 0 days); 264 mg/kg in series [2] (feed containing a mixture of AC and EAAC, molar ratio 50:50, stored at room temperature (RT), 0 days).

Turning to gentamycin, in series [3], the “inhibition at the expected concentration” value was 4 mg/L.
